Entries after “also recorded” stand apart in the source; their conditions may differ.
Key:
[1] = test system: telomerized human diploid fibroblasts; assay: Comet tail assay after IR; type: cell-based; conditions: 24 hours treatment prior to IR, 0-8 Gy
Experimental: Telomerized human diploid fibroblasts were irradiated and then immobilized. After immobilization, cell nuclei were exposed to an electric field by gel electrophoresis, with fragmented DNA migrating further than undamaged DNA.
Comet tail assay: Cells were seeded and allowed to adhere overnight in a 6 cm culture dish. Cells were then treated for 24 hours with a CDK4/6 inihibitor or dimethyl sulfoxide (DMSO) only. After 24 hours cells were irradiated as described. Cells were then fixed and treated as described in manufacturer instructions for the COMETASSAY™ purchased from Trevigen (Gaithersburg, Md., United States of America). In summary, cells were embedded in agarose, the membranes are permeabilized, DNA is denatured in alkali solution, and the DNA is mobilized using gel electrophoresis. Images of the comet tails were obtained by fluorescent microscopy (see Microscopy) and images were analyzed using CometScore software from TriTek Corp. (Sumerduck, Va., United States of America) at either 10× or 20× magnification.

tHDF (HS68) cells = assay: Clonogenic assay after IR, tHDF (HS68); type: cell-based, human; conditions: PD0332991 100 nM, 2BrIC 2 μM, CINK4 6 μM, IR 0-9 Gy
Experimental: FIG. 6A is a set of micrograph images of crystal violet stained cell cultures of cyclin-dependent kinase 4/6 (CDK4/6)-dependent cells (HS68) plated at different cell/well ratios and treated with either dimethyl sulfoxide (DMSO) as a negative control or with the selective CDK4/6 inhibitor 2-bromo-12,13-dihydro-5H-indolo[2,3-a]pyrrolo[3,4]carbazole-5,6-dione (2BrIC) at 2 μM for 24 hours prior to exposure to ionizing radiation at 0, 1.5, 3, 6, or 9 gray (Gy), as indicated.
Data plotted is the area/cell ratio of PD0332991 treated cells to dimethyl sulfoxide (DMSO) treated cells. Error bars show standard error of the mean.
FIG. 9A is a set of micrograph images of cell cultures of cyclin-dependent kinase 4/6 (CDK4/6)-dependent cells (HS68) plated at different cell/well ratios and pretreated with either dimethyl sulfoxide (DMSO) as a control or with the nonselective CDK4/6 inhibitor trans-4-[[6-ethylamino)-2-[[1-phenylmethyl)-1H-indol-5-yl]amino]-4-pyrimidinyl]amino]]-cyclohexanol (CINK4) at 6 μM for 24 hours prior to exposure to ionizing radiation at 0, 1.5, 3, 6, or 9 gray (Gy), as indicated. The plates were stained with crystal violet to visualize cell colonies.
Clonogenic Assay: The clonogenic assay was performed as previously described (see Franken et al., Nature protocols, 1, 2315-1319 (2006)) with cells plated in a six-well plate at least 6 hours prior to treatment with CDK inhibitor for 24 hours, with 6 Gy IR occurring 12 hours after initiation of CDK inhibitor exposure. Cells were grown for 16 days, washed, fixed, and stained with crystal violet. Plates were then imaged using an Odyssey infrared scanner (Li-Cor Biosciences, Lincoln, Nebr., United States of America) and quantified using the accompanying software.

[2] = test system: human melanoma cell line WM2664; assay: Cell cycle analysis (BrdU incorporation in vitro), WM2664; type: cell-based; conditions: WM2664, 24 hours exposure
Text: FIG. 3A is a set of graphs showing the dose-response curves for cycle analysis in both cyclin-dependent kinase 4/6 (CKD4/6)-dependent cells (human telomerized human diploid fibroblasts (tHDFs, left-hand column of graphs) and a CDK4/6-dependent human melanoma cell line (WM2664, middle column of graphs)) and in CDK4/6-independent cells (a human retinoblastoma tumor suppressor protein (RB)-null melanoma cell line (A2058), right-hand column of graphs). […] The percentage of cells in the G1 phase is indicated by the data shown in the open triangles, while the percentage of cells in the S phase is shown by the data in the shaded circles and the percentage of cells in the G2/M phase is indicated by the data in the double “x”s.
FIG. 8 is a set of representative cell cycle dot-plots for cyclin-dependent kinase 4/6 (CDK4/6)-dependent (WM2664) human melanoma cells (top two rows) and CDK4/6-independent (A2058) human melanoma cells (bottom two rows) that had been treated with dimethyl sulfoxide (DMSO) as a control or with 300 nM, 1 μM, 3 μM, 10 μM or 30 μM of trans-4-[[6-ethylamino)-2-[[2-phenylmethyl)-1H-indol-5-yl]amino]-4-pyrimidinyl]amino]]-cyclohexanol (CINK4).
Cell Lines: KPTR1, KPTR4. and KPTR5 were derived from tumor-bearing TyrRAS+Ink4a/Arf−/− by standard procedures and cultured in RPMI+10% fetal bovine serum (FBS). Telomerized HDFs (tHDFs, also known as HS68) were cultured in DMEM+10% FBS with penicillin and streptomycin. The same conditions were used for A2058 and WM2664, human melanoma cell lines with known RB-pathway mutations: A2058 is RB-null, whereas WM2664 lacks p16^INK4a/Arf. See Shields, et al., Cancer Res., 67, 1502-1512 (2007). Cells were irradiated for indicated doses in a Rad Source Inc. (Alpharetta, Ga., United States of America) RS-2000 Biological Irradiator at 160 kV, 25.0 mA, at distance setting 1, with a dose rate of 103 rads/min.
BrdU Incorporation in vitro: Cells were plated and allowed to adhere overnight or at least 6 hours prior to adding CDK4/6 inhibitor at the indicated concentrations. Cells were grown for 24 hours in the presence of CDK4/6 inhibitor. 15 minutes prior to cell harvesting, 5-Bromo-2-deoxyuridine (BrdU) was added to the media at a final concentration of 10 μM. The cells were then washed, trypsinized, pelleted, fixed, permeabilized, stained, and measured on a flow cytometer as described in manufacturer directions for the BrdU Kit (BD Biosciences Pharmingen, San Diego, Calif., United States of America).
The proliferation of seven RB-deficient human small cell lung cancer lines was also resistant to the selective CDK4/6 inhibitors.

[3] = test system: mice exposed to total body irradiation
Text: FIG. 16 is set of bar graphs showing the hematocrit or cell counts of different lineages of blood cells from mice 143-242 days following exposure to a lethal dose (7.5 gray (Gy)) or sub-lethal dose (6.5 Gy) of total body irradiation (TBI). Data for mice treated with 6-acetyl-8-cyclopentyl-5-methyl-2-(5-piperazin-1-yl-pyridin-2-ylamino)-8H-pyrido-[2,3-d]pyrimidin-7-one (PD 0332991) prior to 6.5 Gy TBI is shown in the solid bars and data for mice treated with PD 0332991 prior to 7.5 Gy TBI is shown in the stippled bars. […] Myeloid cell count is the sum of granulocytes and monocytes.

Compound	DNA damage (comet tails) after IR [1]	clonogenic cell survival after IR (area/cell ratio relative to DMSO) (tHDF (HS68) cells)	cell cycle effect [2]	deaths ([3]; 6.5 Gy TBI, followed 210-274 days post-TBI)	deaths among 29 mice surviving acute toxicity ([3]; 7.5 Gy TBI, remaining mice disease free 101-251 days post-TBI)	blood counts on long-term surviving animals vs unirradiated ([3]; long-term after TBI)	myeloproliferative disorder or myelodysplasia ([3]; mouse, in vivo)
CC(=O)c1c(C)c2cnc(Nc3ccc(N4CCNCC4)cn3)nc2n(C2CCCC2)c1=O [PD0332991, 6-acetyl-8-cyclopentyl-5-methyl-2-(5-piperazin-1-yl-pyridin-2-ylamino)-8H-pyrido-[2,3-d]-pyrimidin-7-one]	greatly attenuated; also recorded: potently reduce comet tail formation	enhanced clonogenic cell survival	strong, reversible G1-arrest	no deaths	one death of unknown cause at day 99	comparable	No evidence
O=C1NC(=O)c2c1c1c3ccccc3[nH]c1c1[nH]c3cc(Br)ccc3c21 [Compound 2BrIC, 2-bromo-12,13-dihydro-5H-indolo[2,3-a]pyrrolo[3,4]-carbazole-5,6-dione]	attenuated; also recorded: potently reduce comet tail formation	enhanced clonogenic cell survival	strong, reversible G1-arrest	–	–	–	–
